Columns and labels:
[1] = system: MDA-MB-231 cells; test: Proliferation assay; format: cell-based, human; conditions: 48 h treatment
Experimental: Proliferation Assay. MDA-MB-231 cells were seeded in 96-well plates (Corning) at ˜40% confluency and treated with compound or transfected with ASO as described in Cell Culture. Compound was replenished every 16 h by replacing all the growth medium with freshly prepared medium containing same concentration of compounds. After 48 h total treatment period, proliferation was measured by using CellTiter 96 AQueous One Solution Cell Proliferation Assay (Cat #G3582, Promega) per manufacturer's protocol.

[2] = system: base paired (BP) mutant RNA lacking the U-bulge; test: In vitro Chem-CLIP with Cy5-labeled mutant RNA; format: binding; conditions: U-bulge mutated to A/U base pair
Experimental: In Vitro Chemical-Crosslinking and Isolation by Pull-down (Chem-CLIP) with Fluorescently Labeled RNA. Cy5-labeled RNA (100 μL, 2 μM) was folded by heating at 95° C. for 2 min in 1× Folding Buffer and cooled on ice. The RNA was then mixed with F1 at the indicated concentrations. The sample was irradiated with UV light (365 nm) for 15 min and then added to 100 μL of azide-disulfide agarose beads (Click Chemistry Tools, 1238-2) pre-washed with 200 μL of 25 mM HEPES, pH 7.0. A click reaction solution was prepared by mixing 30 μL of 250 mM sodium ascorbate, 30 μL of 10 mM CuSO4, and 30 μL of 50 mM THPTA, which was added to the sample. The sample was incubated while rotating at 37° C. for 2 h, briefly centrifuged, and then the supernatant was decanted. The beads were washed six times with 1× Washing Buffer (10 mM Tris-HCl, pH 7, 4 M NaCl, 1 mM EDTA, and 0.05% (v/v) Tween-20) following by incubation with 1× Releasing Buffer (50 mM TCEP and 100 mM K2CO3) at 37° C. for 30 min. An equivalent of iodoacetamide (200 mM) was added to the sample, which was incubated at 37° C. for an additional 30 min. The sample was briefly centrifuged and supernatant containing RNA was carefully transferred to a clean tube. Cy-5 fluorescence in the supernatant was measured with a Molecular Devices SpectraMax M5 plate reader with an excitation wavelength of 640 nm and an emission wavelength of 680 nm. […]

[3] = system: QSOX1 mRNA; test: Chem-CLIP pull-down of QSOX1 mRNA in live cells, RT-qPCR (dose and time dependence); format: cell-based, human
Experimental: Chemical-Cross-linking and Isolation by Pull-down (Chem-CLIP) in Live Cells. MDA-MB-231 cells were seeded in 60 mm dishes and allowed to reach ˜80% confluency. The cells were then treated with 20 μM of compound in growth medium and incubated for 16 h. Cells were washed with 1×DPBS and irradiated with UV light for 10 min. Total RNA was harvested using a Zymo Quick-RNA Miniprep Kit per the manufacturer's protocol with DNase treatment. Total RNA was chemically fragmented by using an NEBNext Magnesium RNA Fragmentation Module (E6150S) per manufacturer's protocol to achieve final lengths between 100-150 nucleotides Pull-down of cross-linked RNAs was performed by adding 10 μg of total RNA to 100 μL of azide-disulfide agarose beads (Click Chemistry Tools, 1238-2) pre-washed with 25 mM HEPES, pH 7.0. The click reaction and pull-down were completed as described in “In Vitro Chemical-Crosslinking and Isolation by Pull-down (Chem-CLIP) with Fluorescently Labeled RNA”. The pulled down RNA was purified by RNA CleanXP beads (Beckman, A66514) per manufacturer's protocol.
For dose response studies, cells were treated with varying concentration of F1 (1, 5, 20 μM) as described above for 16 h. For time course studies, cells were treated with 20 μM of for 1, 4, 8, or 16 h. With the exception of compound concentration or time at which total RNA was harvested, the remaining steps of the protocol were completed as described above for both concentration- and time-dependent studies.
Analysis of mRNA Abundance by RT-qPCR. Unless stated otherwise, all RT-qPCR experiments were performed to measure nascent RNA levels by using Click-it Nascent RNA Capture Kit (Cat #C10365, Thermo Fisher) per the manufacturer's protocols. Briefly, cells were treated with 0.2 mM of ethynyl uridine (EU) in growth medium for 16 h, after which the medium was replaced with fresh growth medium lacking EU. Compound or ASO treatment was performed at the same time of initial EU treatment, and compounds were replenished after replacing the medium to remove EU. Total RNA was extracted by using a Zymo Quick-RNA Miniprep Kit as per manufacturer's protocol with DNase treatment. The click reaction and pull-down of nascent RNA were performed as described in “In Vitro Chemical-Crosslinking and Isolation by Pull-down (Chem-CLIP) with Fluorescently Labeled RNA”. Reverse transcription (RT) was performed by using 300 ng total RNA and a QScript cDNA synthesis kit (QuantaBio) per manufacturer's protocols qPCR was performed in 384-well plates by using Power SYBR Green Master Mix (Life Technologies) on a QuantStudioS™ Cycler (Applied Biosystems) using the “Comparative Ct with Melt” method.

SMILES	antiproliferative activity compared to F1-Amide delivered at twice the dose [1]	effect on proliferation of MDA-MB-231 cells [1]	cross-linking / pull-down of mutant RNA [2]	enrichment of QSOX1 mRNA ([3]; 5 μM, 16 h incubation) [fold]	enrichment of QSOX1 mRNA ([3]; 20 μM, 1 h incubation)	enrichment of QSOX1 mRNA ([3]; 20 μM, 4 h) [fold]	enrichment of QSOX1 mRNA ([3]; 20 μM, 8 h and 16 h time points)	enrichment of QSOX1 mRNA ([3]; 20 μM, 16 h incubation) [fold]
CCOC(=O)C1=C(Nc2ccccc2)S/C(=C\c2ccc(OCCOCCOCCOCCNC(=O)CCC(=O)N(C)[C@H]3CC[C@@H](c4ccc(Cl)c(Cl)c4)c4ccccc43)c(O)c2)C1=O [Compound F1-RIBOTAC]	enhanced activity	dose-dependently reduced proliferation	–	–	–	–	–	–
C#CCCC1(CCC(=O)N(C)[C@H]2CC[C@@H](c3ccc(Cl)c(Cl)c3)c3ccccc32)N=N1 [Compound F1]	–	–	ablated	~6	no enrichment	~4	plateauing	~12
